Assay results: ChEMBL document CHEMBL2380302, “Synthesis of 3-O-propargylated betulinic acid and its 1,2,3-triazoles as potential apoptotic agents” (Eur J Med Chem, 2013)
pIC50: −log10 of the molar value.

Key:
[1] = test system: SF-295; assay: Cytotoxicity against human SF295 cells after 48 hrs by SRB assay; type: functional, cell-based; conditions: SF-295, 48 h
[2] = test system: THP-1; assay: Cytotoxicity against human THP1 cells at 50 uM after 48 hrs by SRB assay; type: functional; conditions: THP-1, 48 h, read-out: GI
[3] = test system: PC-3; assay: Cytotoxicity against human PC3 cells at 10 uM after 48 hrs by SRB assay; type: functional; conditions: PC-3, 48 h, read-out: GI
[4] = test system: DU-145; assay: Cytotoxicity against human DU145 cells after 48 hrs by SRB assay; type: functional, cell-based; conditions: DU-145, 48 h
[5] = test system: PC-3; assay: Cytotoxicity against human PC3 cells at 30 uM after 48 hrs by SRB assay; type: functional; conditions: PC-3, 48 h, read-out: GI
[6] = test system: HL-60; assay: Cytotoxicity against human HL60 cells at 50 uM after 48 hrs by SRB assay; type: functional; conditions: HL-60, 48 h, read-out: GI
[7] = test system: SF-295; assay: Cytotoxicity against human SF295 cells at 10 uM after 48 hrs by SRB assay; type: functional; conditions: SF-295, 48 h, read-out: GI
[8] = test system: MCF7; assay: Cytotoxicity against human MCF7 cells at 10 uM after 48 hrs by SRB assay; type: functional; conditions: MCF7, 48 h, read-out: GI
[9] = test system: SF-295; assay: Cytotoxicity against human SF295 cells at 30 uM after 48 hrs by SRB assay; type: functional; conditions: SF-295, 48 h, read-out: GI
[10] = test system: HEp-2; assay: Cytotoxicity against human Hep2 cells at 10 uM after 48 hrs by SRB assay; type: functional; conditions: HEp-2, 48 h, read-out: GI
[11] = test system: THP-1; assay: Cytotoxicity against human THP1 cells after 48 hrs by SRB assay; type: functional, cell-based; conditions: THP-1, 48 h
[12] = test system: PC-3; assay: Cytotoxicity against human PC3 cells after 48 hrs by SRB assay; type: functional, cell-based; conditions: PC-3, 48 h
[13] = test system: DU-145; assay: Cytotoxicity against human DU145 cells at 30 uM after 48 hrs by SRB assay; type: functional; conditions: DU-145, 48 h, read-out: GI
[14] = test system: HEp-2; assay: Cytotoxicity against human Hep2 cells at 50 uM after 48 hrs by SRB assay; type: functional; conditions: HEp-2, 48 h, read-out: GI
[15] = test system: DU-145; assay: Cytotoxicity against human DU145 cells at 50 uM after 48 hrs by SRB assay; type: functional; conditions: DU-145, 48 h, read-out: GI
[16] = test system: PC-3; assay: Cytotoxicity against human PC3 cells at 50 uM after 48 hrs by SRB assay; type: functional; conditions: PC-3, 48 h, read-out: GI
[17] = test system: MCF7; assay: Cytotoxicity against human MCF7 cells at 30 uM after 48 hrs by SRB assay; type: functional; conditions: MCF7, 48 h, read-out: GI
[18] = test system: A549; assay: Cytotoxicity against human A549 cells at 50 uM after 48 hrs by SRB assay; type: functional; conditions: A549, 48 h, read-out: GI
[19] = test system: A549; assay: Cytotoxicity against human A549 cells at 10 uM after 48 hrs by SRB assay; type: functional; conditions: A549, 48 h, read-out: GI
[20] = test system: HL-60; assay: Cytotoxicity against human HL60 cells at 30 uM after 48 hrs by SRB assay; type: functional; conditions: HL-60, 48 h, read-out: GI
[21] = test system: HCT-15; assay: Cytotoxicity against human HCT15 cells at 10 uM after 48 hrs by SRB assay; type: functional; conditions: HCT-15, 48 h, read-out: GI
[22] = test system: MCF7; assay: Cytotoxicity against human MCF7 cells at 50 uM after 48 hrs by SRB assay; type: functional; conditions: MCF7, 48 h, read-out: GI
[23] = test system: HL-60; assay: Cytotoxicity against human HL60 cells after 48 hrs by SRB assay; type: functional, cell-based; conditions: HL-60, 48 h
[24] = test system: SF-295; assay: Cytotoxicity against human SF295 cells at 50 uM after 48 hrs by SRB assay; type: functional; conditions: SF-295, 48 h, read-out: GI
[25] = test system: HEp-2; assay: Cytotoxicity against human Hep2 cells after 48 hrs by SRB assay; type: functional, cell-based; conditions: HEp-2, 48 h
[26] = test system: HCT-15; assay: Cytotoxicity against human HCT15 cells at 30 uM after 48 hrs by SRB assay; type: functional; conditions: HCT-15, 48 h, read-out: GI
[27] = test system: THP-1; assay: Cytotoxicity against human THP1 cells at 30 uM after 48 hrs by SRB assay; type: functional; conditions: THP-1, 48 h, read-out: GI
[28] = test system: HCT-15; assay: Cytotoxicity against human HCT15 cells after 48 hrs by SRB assay; type: functional, cell-based; conditions: HCT-15, 48 h
[29] = test system: A549; assay: Cytotoxicity against human A549 cells after 48 hrs by SRB assay; type: functional, cell-based; conditions: A549, 48 h
[30] = test system: A549; assay: Cytotoxicity against human A549 cells at 30 uM after 48 hrs by SRB assay; type: functional; conditions: A549, 48 h, read-out: GI
[31] = test system: THP-1; assay: Cytotoxicity against human THP1 cells at 10 uM after 48 hrs by SRB assay; type: functional; conditions: THP-1, 48 h, read-out: GI
[32] = test system: DU-145; assay: Cytotoxicity against human DU145 cells at 10 uM after 48 hrs by SRB assay; type: functional; conditions: DU-145, 48 h, read-out: GI
[33] = test system: MCF7; assay: Cytotoxicity against human MCF7 cells after 48 hrs by SRB assay; type: functional, cell-based; conditions: MCF7, 48 h
[34] = test system: HEp-2; assay: Cytotoxicity against human Hep2 cells at 30 uM after 48 hrs by SRB assay; type: functional; conditions: HEp-2, 48 h, read-out: GI
[35] = test system: HL-60; assay: Cytotoxicity against human HL60 cells at 10 uM after 48 hrs by SRB assay; type: functional; conditions: HL-60, 48 h, read-out: GI
[36] = test system: HCT-15; assay: Cytotoxicity against human HCT15 cells at 50 uM after 48 hrs by SRB assay; type: functional; conditions: HCT-15, 48 h, read-out: GI

C=C(C)[C@@H]1CC[C@]2(C(=O)O)CC[C@]3(C)[C@H](CC[C@@H]4[C@@]5(C)CC[C@H](OCc6cn(-c7cc(OC)c(OC)c(OC)c7)nn6)C(C)(C)[C@@H]5CC[C@]43C)[C@@H]12 showed a pIC50 [1] of 4.57, an inhibition of growth at 50 µM [2] of 58% and an inhibition of growth at 10 µM [3] of 8%. The pIC50 [4] was under 4.30, the inhibition of growth at 30 µM [5] was 30% and the inhibition of growth at 50 µM [6] was 65%. It also gave an inhibition of growth at 10 µM [7] of 28%, an inhibition of growth at 10 µM [8] of 50% and an inhibition of growth at 30 µM [9] of 51%. For the same molecule, the inhibition of growth at 10 µM [10] was 8%, the pIC50 [11] was 4.41 and the pIC50 [12] was under 4.30. For the same molecule, the inhibition of growth at 30 µM [13] was 10%, the inhibition of growth at 50 µM [14] was 48% and the inhibition of growth at 50 µM [15] was 11%. For the same molecule, the inhibition of growth at 50 µM [16] was 46%, the inhibition of growth at 30 µM [17] was 71% and the inhibition of growth at 50 µM [18] was 41%. For the same molecule, the inhibition of growth at 10 µM [19] was 25%, the inhibition of growth at 30 µM [20] was 51% and the inhibition of growth at 10 µM [21] was 47%. For the same molecule, the inhibition of growth at 50 µM [22] was 74%, the pIC50 [23] was 4.43 and the inhibition of growth at 50 µM [24] was 51%. For the same molecule, the pIC50 [25] was under 4.30, the inhibition of growth at 30 µM [26] was 35% and the inhibition of growth at 30 µM [27] was 44%. The pIC50 [28] was under 4.30, the pIC50 [29] was under 4.30 and the inhibition of growth at 30 µM [30] was 26%. The inhibition of growth at 10 µM [31] was 35%, the inhibition of growth at 10 µM [32] was 3% and the pIC50 [33] was 5.00. The inhibition of growth at 30 µM [34] was 38%, the inhibition of growth at 10 µM [35] was 41% and the inhibition of growth at 50 µM [36] was 43%.
Work on C=C(C)[C@@H]1CC[C@]2(C(=O)O)CC[C@]3(C)[C@H](CC[C@@H]4[C@@]5(C)CC[C@H](OCc6cn(C7O[C@H](COC(C)=O)[C@H](OC(C)=O)[C@H](OC(C)=O)[C@H]7OC(C)=O)nn6)C(C)(C)[C@@H]5CC[C@]43C)[C@@H]12 (stereo partly drawn) yielded a pIC50 [1] of under 4.30, an inhibition of growth at 50 µM [2] of 72% and an inhibition of growth at 10 µM [3] of 5%. It also gave a pIC50 [4] of under 4.30, an inhibition of growth at 30 µM [5] of 32% and an inhibition of growth at 50 µM [6] of 74%. It also gave an inhibition of growth at 10 µM [7] of 8%, an inhibition of growth at 10 µM [8] of 35% and an inhibition of growth at 30 µM [9] of 20%. For the same molecule, the inhibition of growth at 10 µM [10] was 25%, the pIC50 [11] was 4.30 and the pIC50 [12] was under 4.30. It also gave an inhibition of growth at 30 µM [13] of 20%, an inhibition of growth at 50 µM [14] of 58% and an inhibition of growth at 50 µM [15] of 36%. The inhibition of growth at 50 µM [16] was 40%, the inhibition of growth at 30 µM [17] was 44% and the inhibition of growth at 50 µM [18] was 37%. The inhibition of growth at 10 µM [19] was 6%, the inhibition of growth at 30 µM [20] was 66% and the inhibition of growth at 10 µM [21] was 39%. It also gave an inhibition of growth at 50 µM [22] of 52%, a pIC50 [23] of 5.26 and an inhibition of growth at 50 µM [24] of 39%. For the same molecule, the pIC50 [25] was 4.40, the inhibition of growth at 30 µM [26] was 51% and the inhibition of growth at 30 µM [27] was 61%. The pIC50 [28] was 4.55, the pIC50 [29] was under 4.30 and the inhibition of growth at 30 µM [30] was 10%. It also gave an inhibition of growth at 10 µM [31] of 50%, an inhibition of growth at 10 µM [32] of 8% and a pIC50 [33] of 4.35. For the same molecule, the inhibition of growth at 30 µM [34] was 41%, the inhibition of growth at 10 µM [35] was 62% and the inhibition of growth at 50 µM [36] was 63%.
C=C(C)[C@@H]1CC[C@]2(C(=O)O)CC[C@]3(C)[C@H](CC[C@@H]4[C@@]5(C)CC[C@H](OCc6cn(-c7ccc(OC)cc7)nn6)C(C)(C)[C@@H]5CC[C@]43C)[C@@H]12 showed a pIC50 [1] of 4.36, an inhibition of growth at 50 µM [2] of 97% and an inhibition of growth at 10 µM [3] of 5%. For the same molecule, the pIC50 [4] was 4.32, the inhibition of growth at 30 µM [5] was 8% and the inhibition of growth at 50 µM [6] was 99%. The inhibition of growth at 10 µM [7] was 20%, the inhibition of growth at 10 µM [8] was 44% and the inhibition of growth at 30 µM [9] was 46%. For the same molecule, the inhibition of growth at 10 µM [10] was 41%, the pIC50 [11] was 5.00 and the pIC50 [12] was 4.31. For the same molecule, the inhibition of growth at 30 µM [13] was 37%, the inhibition of growth at 50 µM [14] was 74% and the inhibition of growth at 50 µM [15] was 53%. The inhibition of growth at 50 µM [16] was 52%, the inhibition of growth at 30 µM [17] was 62% and the inhibition of growth at 50 µM [18] was 51%. It also gave an inhibition of growth at 10 µM [19] of 38%, an inhibition of growth at 30 µM [20] of 82% and an inhibition of growth at 10 µM [21] of 55%. For the same molecule, the inhibition of growth at 50 µM [22] was 93%, the pIC50 [23] was 5.10 and the inhibition of growth at 50 µM [24] was 59%. The pIC50 [25] was 4.64, the inhibition of growth at 30 µM [26] was 55% and the inhibition of growth at 30 µM [27] was 77%. It also gave a pIC50 [28] of 5.10, a pIC50 [29] of 4.30 and an inhibition of growth at 30 µM [30] of 40%. The inhibition of growth at 10 µM [31] was 50%, the inhibition of growth at 10 µM [32] was 35% and the pIC50 [33] was 4.85. It also gave an inhibition of growth at 30 µM [34] of 54%, an inhibition of growth at 10 µM [35] of 54% and an inhibition of growth at 50 µM [36] of 57%.
